Results taken from ChEMBL document CHEMBL1201861, “Genomics of Drug Sensitity in Cancer screening data, Wellcome Trust Sanger Institute”.

What was measured:
Experiment in all cases: cells
HDLM-2 = type: functional, cell-based; conditions: Homo sapiens;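 further: cell viability assay measuring suppression of HDLM-2 proliferation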
Description: SANGER: Inhibition of human HDLM-2 cell growth in a cell viability assay.

CAPAN-1 = type: functional, cell-based, Homo sapiens; conditions: Homo sapiens, CAPAN-1;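 further: growth suppression of CAPAN-1 cells, read out by a cell viability assay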
Description: SANGER: Inhibition of human CAPAN-1 cell growth in a cell viability assay.

ABC-1 = type: functional, cell-based, Homo sapiens; conditions: Homo sapiens, ABC-1;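 further: growth inhibition of human ABC-1 cells, read out by a cell viability assay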
Description: SANGER: Inhibition of human ABC-1 cell growth in a cell viability assay.

SK-MEL3 = type: functional, cell-based, Homo sapiens, SK-MEL-3; conditions: Homo sapiens, SK-MEL3;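 further: growth inhibition of human SK-MEL-3 cells, read out with a cell viability assay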
Description: SANGER: Inhibition of human SK-MEL-3 cell growth in a cell viability assay.

UACC-257 = type: functional, cell-based, Homo sapiens; conditions: Homo sapiens, UACC-257
Description: SANGER: Inhibition of human UACC-257 cell growth in a cell viability assay.

RPMI-8866 = type: functional, cell-based; conditions: Homo sapiens
Description: SANGER: Inhibition of human RPMI-8866 cell growth in a cell viability assay.

BFTC-905 = type: functional, cell-based, Homo sapiens; conditions: Homo sapiens, BFTC-905
Description: SANGER: Inhibition of human BFTC-905 cell growth in a cell viability assay.

COLO-668 = type: functional, cell-based, Homo sapiens; conditions: Homo sapiens, COLO-668
Description: SANGER: Inhibition of human COLO-668 cell growth in a cell viability assay.

SK-N-FI = type: functional, cell-based, Homo sapiens; conditions: Homo sapiens, SK-N-FI;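 further: cell viability assay measuring growth inhibition of human SK-N-FI cells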
Description: SANGER: Inhibition of human SK-N-FI cell growth in a cell viability assay.

IST-MES1 = type: functional, cell-based, Homo sapiens; conditions: Homo sapiens, IST-MES1;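 further: growth inhibition of IST-MES1 cells, measured with a cell viability assay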
Description: SANGER: Inhibition of human IST-MES1 cell growth in a cell viability assay.

BHY = type: functional, cell-based, Homo sapiens; conditions: Homo sapiens, BHY;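 further: cell growth inhibition read out by a viability assay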
Description: SANGER: Inhibition of human BHY cell growth in a cell viability assay.

NCI-H358 = type: functional, cell-based, Homo sapiens; conditions: Homo sapiens, NCI-H358;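 further: growth inhibition of NCI-H358 human cells, read out with a cell viability assay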
Description: SANGER: Inhibition of human NCI-H358 cell growth in a cell viability assay.

NB17 = type: functional, cell-based; conditions: Homo sapiens;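 further: growth inhibition of NB17 cells, read out with a cell viability assay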
Description: SANGER: Inhibition of human NB17 cell growth in a cell viability assay.

NCI-H1651 = type: functional, cell-based, Homo sapiens; conditions: Homo sapiens, NCI-H1651;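 further: Read-out is a cell viability assay, with IC50 expressing inhibition of NCI-H1651 cell growth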
Description: SANGER: Inhibition of human NCI-H1651 cell growth in a cell viability assay.

NCI-H1304 = type: functional, cell-based; conditions: Homo sapiens;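 further: growth inhibition of the cancer cell line, measured in a cell viability assay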
Description: SANGER: Inhibition of human NCI-H1304 cell growth in a cell viability assay.

NCI-H1355 = type: functional, cell-based, Homo sapiens; conditions: Homo sapiens, NCI-H1355;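 further: growth inhibition of human NCI-H1355 cells, read out by a cell viability assay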
Description: SANGER: Inhibition of human NCI-H1355 cell growth in a cell viability assay.

QIMR-WIL = type: functional, cell-based; conditions: Homo sapiens;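 further: growth inhibition of QIMR-WIL cells, read out with a cell viability assay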
Description: SANGER: Inhibition of human QIMR-WIL cell growth in a cell viability assay.

COR-L105 = type: functional, cell-based, Homo sapiens; conditions: Homo sapiens, COR-L105;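 further: cell growth inhibition determined with a viability assay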
Description: SANGER: Inhibition of human COR-L105 cell growth in a cell viability assay.

TE-10 = type: functional, cell-based, Homo sapiens; conditions: Homo sapiens, TE-10;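 further: growth inhibition of TE-10 cells, measured by a cell viability assay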
Description: SANGER: Inhibition of human TE-10 cell growth in a cell viability assay.

NB69 = type: functional, cell-based, Homo sapiens; conditions: Homo sapiens, NB69;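 further: growth inhibition of NB69 cells, determined by a cell viability assay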
Description: SANGER: Inhibition of human NB69 cell growth in a cell viability assay.

EW-18 = type: functional, cell-based; conditions: Homo sapiens;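 further: growth inhibition of EW-18 cells, read out by a cell viability assay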
Description: SANGER: Inhibition of human EW-18 cell growth in a cell viability assay.

SNU-387 = type: functional, cell-based, Homo sapiens; conditions: Homo sapiens, SNU-387
Description: SANGER: Inhibition of human SNU-387 cell growth in a cell viability assay.

U-118-MG = type: functional, cell-based, Homo sapiens; conditions: Homo sapiens, U-118-MG
Description: SANGER: Inhibition of human U-118-MG cell growth in a cell viability assay.

TE-5 = type: functional, cell-based, Homo sapiens; conditions: Homo sapiens, TE-5;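 further: inhibition of cell growth, read out by a cell viability assay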
Description: SANGER: Inhibition of human TE-5 cell growth in a cell viability assay.

NCI-H23 = type: functional, cell-based, Homo sapiens; conditions: Homo sapiens, NCI-H23;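 further: cell viability assay measuring growth inhibition of NCI-H23 cells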
Description: SANGER: Inhibition of human NCI-H23 cell growth in a cell viability assay.

A 172 = type: functional, cell-based, Homo sapiens; conditions: Homo sapiens, A 172;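 further: growth inhibition of A172 cells, measured with a cell viability readout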
Description: SANGER: Inhibition of human A172 cell growth in a cell viability assay.

NCI-H209 = type: functional, cell-based; conditions: Homo sapiens;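 further: growth inhibition of human NCI-H209 cells, measured by a cell viability assay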
Description: SANGER: Inhibition of human NCI-H209 cell growth in a cell viability assay.

OVCAR-8 = type: functional, cell-based, Homo sapiens; conditions: Homo sapiens, OVCAR-8;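 further: growth inhibition of human OVCAR-8 cells, read out by a cell viability assay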
Description: SANGER: Inhibition of human OVCAR-8 cell growth in a cell viability assay.

MCF7 = type: functional, cell-based, Homo sapiens; conditions: Homo sapiens, MCF7;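 further: growth inhibition of human MCF7 cells, read out with a cell viability assay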
Description: SANGER: Inhibition of human MCF7 cell growth in a cell viability assay.

MFM-223 = type: functional, cell-based, Homo sapiens; conditions: Homo sapiens, MFM-223
Description: SANGER: Inhibition of human MFM-223 cell growth in a cell viability assay.

COR-L23 = type: functional, cell-based, Homo sapiens; conditions: Homo sapiens, COR-L23;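 further: cell viability assay measuring how strongly compounds suppress growth of COR-L23 cells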
Description: SANGER: Inhibition of human COR-L23 cell growth in a cell viability assay.

CAL-27 = type: functional, cell-based, Homo sapiens; conditions: Homo sapiens, CAL-27;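 further: Viability-based readout, IC50 reflecting inhibition of CAL-27 cell growth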
Description: SANGER: Inhibition of human CAL-27 cell growth in a cell viability assay.

EFO-27 = type: functional, cell-based, Homo sapiens; conditions: Homo sapiens, EFO-27;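 further: growth inhibition of EFO-27 cells, read out with a cell viability assay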
Description: SANGER: Inhibition of human EFO-27 cell growth in a cell viability assay.

CCRF-CEM = type: functional, cell-based; conditions: Homo sapiens;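 further: inhibition of CCRF-CEM cell growth, measured by a cell viability assay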
Description: SANGER: Inhibition of human CCRF-CEM cell growth in a cell viability assay.

M059J = type: functional, cell-based, Homo sapiens; conditions: Homo sapiens, M059J;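 further: growth inhibition of M059J cells, read out with a cell viability assay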
Description: SANGER: Inhibition of human M059J cell growth in a cell viability assay.

EW-1 = type: functional, cell-based, Homo sapiens; conditions: Homo sapiens, EW-1
Description: SANGER: Inhibition of human EW-1 cell growth in a cell viability assay.

SW1463 = type: functional, cell-based, Homo sapiens; conditions: Homo sapiens, SW1463;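 further: growth inhibition of SW1463 cells, determined with a cell viability assay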
Description: SANGER: Inhibition of human SW1463 cell growth in a cell viability assay.

SCC-25 = type: functional, cell-based, Homo sapiens; conditions: Homo sapiens, SCC-25;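 further: growth inhibition of SCC-25 cells, measured with a cell viability assay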
Description: SANGER: Inhibition of human SCC-25 cell growth in a cell viability assay.

HuP-T3 = type: functional, cell-based, Homo sapiens; conditions: Homo sapiens, HuP-T3;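 further: HuP-T3 cell growth inhibition, read out with a cell viability assay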
Description: SANGER: Inhibition of human HuP-T3 cell growth in a cell viability assay.

NB6 = type: functional, cell-based, Homo sapiens; conditions: Homo sapiens, NB6
Description: SANGER: Inhibition of human NB6 cell growth in a cell viability assay.

LNCaP-Clone-FGC = type: functional, cell-based, Homo sapiens; conditions: Homo sapiens, LNCaP-Clone-FGC
Description: SANGER: Inhibition of human LNCaP-Clone-FGC cell growth in a cell viability assay.

U2OS = type: functional, cell-based, Homo sapiens, U-2-OS; conditions: Homo sapiens, U2OS;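 further: growth inhibition of human U-2-OS cells, determined with a cell viability assay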
Description: SANGER: Inhibition of human U-2-OS cell growth in a cell viability assay.

SW1417 = type: functional, cell-based, Homo sapiens; conditions: Homo sapiens, SW1417;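 further: growth inhibition of human SW1417 cells, read out with a cell viability assay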
Description: SANGER: Inhibition of human SW1417 cell growth in a cell viability assay.

HuP-T4 = type: functional, cell-based, Homo sapiens; conditions: Homo sapiens, HuP-T4;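 further: cell viability assay measuring how much HuP-T4 cell growth is inhibited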
Description: SANGER: Inhibition of human HuP-T4 cell growth in a cell viability assay.

GMS-10 = type: functional, cell-based, Homo sapiens; conditions: Homo sapiens, GMS-10;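 further: growth inhibition of GMS-10 cells, read out as cell viability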
Description: SANGER: Inhibition of human GMS-10 cell growth in a cell viability assay.

COR-L88 = type: functional, cell-based; conditions: Homo sapiens;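 further: growth inhibition of COR-L88 cells, read out with a cell viability assay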
Description: SANGER: Inhibition of human COR-L88 cell growth in a cell viability assay.

IST-MEL1 = type: functional, cell-based, Homo sapiens; conditions: Homo sapiens, IST-MEL1;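 further: growth inhibition of the cell line, read out with a cell viability assay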
Description: SANGER: Inhibition of human IST-MEL1 cell growth in a cell viability assay.

KYSE-180 = type: functional, cell-based, Homo sapiens; conditions: Homo sapiens, KYSE-180;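 further: growth inhibition of KYSE-180 cells, read out with a cell viability assay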
Description: SANGER: Inhibition of human KYSE-180 cell growth in a cell viability assay.

GAMG = type: functional, cell-based, Homo sapiens; conditions: Homo sapiens, GAMG;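 further: cell growth inhibition measured by a viability assay in the GAMG human cell line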
Description: SANGER: Inhibition of human GAMG cell growth in a cell viability assay.

MLMA = type: functional, cell-based, Homo sapiens; conditions: Homo sapiens, MLMA;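 further: growth inhibition of MLMA cells (human), determined through a cell viability readout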
Description: SANGER: Inhibition of human MLMA cell growth in a cell viability assay.

`CCOc1nc(NC(=O)Cc2cc(OC)ccc2OC)cc(N)c1C#N` was tested, and the IC50 (HDLM-2) was over 10 µM, the IC50 (CAPAN-1) was over 10 µM and the IC50 (ABC-1) was over 10 µM. The IC50 (SK-MEL3) was over 10 µM, the IC50 (UACC-257) was over 10 µM and the IC50 (RPMI-8866) was over 10 µM. The IC50 (BFTC-905) was over 10 µM, the IC50 (COLO-668) was over 10 µM and the IC50 (SK-N-FI) was over 10 µM. It also gave an IC50 (IST-MES1) of over 10 µM, an IC50 (BHY) of over 10 µM and an IC50 (NCI-H358) of over 10 µM. The IC50 (NB17) was over 10 µM, the IC50 (NCI-H1651) was over 10 µM and the IC50 (NCI-H1304) was over 10 µM. It also gave an IC50 (NCI-H1355) of over 10 µM, an IC50 (QIMR-WIL) of over 10 µM and an IC50 (COR-L105) of over 10 µM. It also gave an IC50 (TE-10) of over 10 µM, an IC50 (NB69) of over 10 µM and an IC50 (EW-18) of over 10 µM. It also gave an IC50 (SNU-387) of over 10 µM, an IC50 (U-118-MG) of over 10 µM and an IC50 (TE-5) of over 10 µM. For the same molecule, the IC50 (NCI-H23) was over 10 µM, the IC50 (A 172) was over 10 µM and the IC50 (NCI-H209) was over 10 µM. It also gave an IC50 (OVCAR-8) of over 10 µM, an IC50 (MCF7) of over 10 µM and an IC50 (MFM-223) of over 10 µM. For the same molecule, the IC50 (COR-L23) was over 10 µM, the IC50 (CAL-27) was over 10 µM and the IC50 (EFO-27) was over 10 µM. It also gave an IC50 (CCRF-CEM) of over 10 µM, an IC50 (M059J) of over 10 µM and an IC50 (EW-1) of over 10 µM. It also gave an IC50 (SW1463) of over 10 µM, an IC50 (SCC-25) of over 10 µM and an IC50 (HuP-T3) of over 10 µM. The IC50 (NB6) was over 10 µM, the IC50 (LNCaP-Clone-FGC) was over 10 µM and the IC50 (U2OS) was over 10 µM. It also gave an IC50 (SW1417) of over 10 µM, an IC50 (HuP-T4) of over 10 µM and an IC50 (GMS-10) of over 10 µM. The IC50 (COR-L88) was over 10 µM, the IC50 (IST-MEL1) was over 10 µM and the IC50 (KYSE-180) was over 10 µM. For the same molecule, the IC50 (GAMG) was over 10 µM and the IC50 (MLMA) was over 10 µM.
For `CC(=O)O[C@@H]1[C@@H](OC(C)=O)[C@@H](O)[C@H](Oc2c(-c3ccc(O)cc3)oc3cc(O)cc(O)c3c2=O)O[C@H]1C`, the IC50 (HDLM-2) was over 10 µM, the IC50 (CAPAN-1) was over 10 µM and the IC50 (ABC-1) was over 10 µM. It also gave an IC50 (SK-MEL3) of 7.74 µM, an IC50 (UACC-257) of over 10 µM and an IC50 (RPMI-8866) of over 10 µM. It also gave an IC50 (BFTC-905) of over 10 µM, an IC50 (COLO-668) of over 10 µM and an IC50 (SK-N-FI) of over 10 µM. It also gave an IC50 (IST-MES1) of over 10 µM, an IC50 (BHY) of over 10 µM and an IC50 (NCI-H358) of over 10 µM. For the same molecule, the IC50 (NB17) was over 10 µM, the IC50 (NCI-H1651) was over 10 µM and the IC50 (NCI-H1304) was over 10 µM. It also gave an IC50 (NCI-H1355) of over 10 µM, an IC50 (QIMR-WIL) of over 10 µM and an IC50 (COR-L105) of over 10 µM. For the same molecule, the IC50 (TE-10) was over 10 µM, the IC50 (NB69) was over 10 µM and the IC50 (EW-18) was over 10 µM. It also gave an IC50 (SNU-387) of over 10 µM, an IC50 (U-118-MG) of over 10 µM and an IC50 (TE-5) of over 10 µM. The IC50 (NCI-H23) was over 10 µM, the IC50 (A 172) was 4.77 µM and the IC50 (NCI-H209) was over 10 µM. It also gave an IC50 (OVCAR-8) of over 10 µM, an IC50 (MCF7) of over 10 µM and an IC50 (MFM-223) of over 10 µM. It also gave an IC50 (COR-L23) of over 10 µM, an IC50 (CAL-27) of over 10 µM and an IC50 (EFO-27) of over 10 µM. The IC50 (CCRF-CEM) was over 10 µM, the IC50 (M059J) was over 10 µM and the IC50 (EW-1) was over 10 µM. For the same molecule, the IC50 (SW1463) was over 10 µM, the IC50 (SCC-25) was over 10 µM and the IC50 (HuP-T3) was over 10 µM. It also gave an IC50 (NB6) of over 10 µM, an IC50 (LNCaP-Clone-FGC) of over 10 µM and an IC50 (U2OS) of over 10 µM. It also gave an IC50 (SW1417) of over 10 µM, an IC50 (HuP-T4) of over 10 µM and an IC50 (GMS-10) of over 10 µM. It also gave an IC50 (COR-L88) of over 10 µM, an IC50 (IST-MEL1) of over 10 µM and an IC50 (KYSE-180) of over 10 µM. It also gave an IC50 (GAMG) of over 10 µM and an IC50 (MLMA) of over 10 µM.
